Source: US10905739B2, “Peptidomimetic macrocycles and formulations thereof” (AILERON THERAPEUTICS, INC., priority 2014, dated 2021)
Converted amounts (≈) assume the structure as drawn. Where two headings read alike, the source gives them in different places. Bridge positions count the residues as written; N and C are the ends. Square brackets hold non-standard residues; d marks the D form. Peptide text beside a SMILES is read from it. dPhe(4-CF3) = N[C@H](Cc1ccc(C(F)(F)F)cc1)C(=O)O; Phe(4-F) = N[C@@H](Cc1ccc(F)cc1)C(=O)O; R8 = C=CCCCCCC[C@@](C)(N)C(=O)O; S8 = C=CCCCCCC[C@](C)(N)C(=O)O; R5 = C=CCCC[C@@](C)(N)C(=O)O; hLeu = CC(C)CC[C@H](N)C(=O)O; S5 = C=CCCC[C@](C)(N)C(=O)O; Nle = CCCC[C@H](N)C(=O)O; Aib = CC(C)(N)C(=O)O

Tests used:
[1] = target: MDM2 (Homo sapiens, UniProt Q00987); test: MDM2 binding IC50/Ki (in vitro displacement, fluorescence polarization)
Sequence of MDM2 (Q00987 whole entry): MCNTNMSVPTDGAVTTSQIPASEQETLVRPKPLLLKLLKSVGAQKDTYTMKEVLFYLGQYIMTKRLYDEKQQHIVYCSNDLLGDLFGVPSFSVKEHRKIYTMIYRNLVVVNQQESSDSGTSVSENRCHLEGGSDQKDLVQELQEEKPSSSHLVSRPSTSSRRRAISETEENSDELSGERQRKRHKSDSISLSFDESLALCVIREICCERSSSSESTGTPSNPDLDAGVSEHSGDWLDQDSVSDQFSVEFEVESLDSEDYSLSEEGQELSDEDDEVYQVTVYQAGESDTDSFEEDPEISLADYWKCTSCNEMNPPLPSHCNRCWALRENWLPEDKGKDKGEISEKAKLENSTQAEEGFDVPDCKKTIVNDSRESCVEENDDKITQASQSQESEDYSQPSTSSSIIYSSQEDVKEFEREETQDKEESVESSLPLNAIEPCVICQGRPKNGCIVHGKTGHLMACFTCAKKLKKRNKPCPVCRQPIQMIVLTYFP

[2] = test system: SJSA-1 cells; test: SJSA-1 sarcoma cell killing / cell viability; assay type: cell-based; settings: 10% serum
[3] = Aqueous solubility (turbidity of solution); assay type: physicochemical
Protocol: In some embodiments, the peptidomimetic macrocycle or pharmaceutically acceptable salt thereof is not precipitated in the formulation. In some embodiments, an aqueous solubility of the peptidomimetic macrocycle is determined by evaluating the turbidity of a solution comprising the peptidomimetic macrocycle. In some embodiments, the peptidomimetic macrocycle or pharmaceutically acceptable salt thereof has an amphipathicity that falls in a range that is optimal for cell permeability.
In some embodiments, a peptidomimetic macrocycle with enhanced cell penetrability can be prepared based on solubility of the polypeptide, for example if the prepared peptidomimetic macrocycle is determined to be soluble based on visual examination of the turbidity of a solution of the polypeptide.

[4] = test system: Influenza A Virus H1N1 California/07/2009; settings: Virus California/07/2009
[5] = target: MCL-1 (Homo sapiens, UniProt Q07820); test: biochemical
Sequence of MCL-1 (Q07820 whole entry): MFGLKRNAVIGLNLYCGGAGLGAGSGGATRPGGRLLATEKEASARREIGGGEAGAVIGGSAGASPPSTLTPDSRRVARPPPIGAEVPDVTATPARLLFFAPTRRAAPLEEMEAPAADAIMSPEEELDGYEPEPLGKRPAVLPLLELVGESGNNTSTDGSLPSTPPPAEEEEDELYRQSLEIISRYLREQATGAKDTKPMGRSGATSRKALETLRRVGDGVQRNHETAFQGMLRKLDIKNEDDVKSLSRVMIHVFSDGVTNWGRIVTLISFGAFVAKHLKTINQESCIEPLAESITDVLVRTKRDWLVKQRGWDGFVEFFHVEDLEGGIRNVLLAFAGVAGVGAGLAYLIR
Source text: To assess the binding and affinity of compounds that antagonize the interaction between a peptide and an acceptor protein, a fluorescence polarization assay (FPA) utilizing a fluoresceinated peptidomimetic macrocycle derived from a peptidomimetic precursor sequence is used, for example. The FPA technique measures the molecular orientation and mobility using polarized light and fluorescent tracer. […] A compound that antagonizes the interaction between the fluoresceinated peptidomimetic macrocycle and an acceptor protein will be detected in a competitive binding FPA experiment.
Antagonist binding activity is measured, for example, by fluorescence polarization on a luminescence spectrophotometer (e.g. Perkin-Elmer LS50B). Kd values can be determined by nonlinear regression analysis using, for example, Graphpad Prism software (GraphPad Software, Inc., San Diego, Calif.).

[6] = target: BCL-XL (Homo sapiens, UniProt Q07817); test: BCL-XL binding IC50
Sequence of BCL-XL (Q07817 whole entry): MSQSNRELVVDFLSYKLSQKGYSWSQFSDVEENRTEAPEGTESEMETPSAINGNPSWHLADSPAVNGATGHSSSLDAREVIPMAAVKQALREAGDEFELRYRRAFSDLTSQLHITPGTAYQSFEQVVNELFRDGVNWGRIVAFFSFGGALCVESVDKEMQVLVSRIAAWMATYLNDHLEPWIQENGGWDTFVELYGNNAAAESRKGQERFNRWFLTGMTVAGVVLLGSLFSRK
Source text: In one aspect, the present invention provides novel peptidomimetic macrocycles that are useful in competitive binding assays to identify agents which bind to the natural ligand(s) of the proteins or peptides upon which the peptidomimetic macrocycles are modeled. For example, in the BH3/BCL-XL anti-apoptotic system labeled peptidomimetic macrocycles based on BH3 can be used in a BCL-XL binding assay along with small molecules that competitively bind to BCL-XL. Competitive binding studies allow for rapid in vitro evaluation and determination of drug candidates specific for the BH3/BCL-XL system. The invention further provides for the generation of antibodies against the peptidomimetic macrocycles. In some embodiments, these antibodies specifically bind both the peptidomimetic macrocycle and the BH3 peptidomimetic precursors upon which the peptidomimetic macrocycles are derived. Such antibodies, for example, disrupt the BH3/BCL-XL systems, respectively.

[7] = test system: Raji Cell; settings: read-out: Raji Cell Viability EC50; 5% serum, 48 hr
Protocol: The efficacy of certain peptidomimetic macrocycles is determined, for example, in cell-based killing assays using a variety of tumorigenic and non-tumorigenic cell lines and primary cells derived from human or mouse cell populations. […] Several standard assays that measure cell viability are commercially available and are optionally used to assess the efficacy of the peptidomimetic macrocycles. In addition, assays that measure Annexin V and caspase activation are optionally used to assess whether the peptidomimetic macrocycles kill cells by activating the apoptotic machinery. For example, the Cell Titer-glo assay is used which determines cell viability as a function of intracellular ATP concentration.

CCCC[C@H](NC(=O)[C@H](C)NC(=O)[C@H](C)NC(=O)[C@]1(C)CCCC=CCCCCCC[C@@](C)(NC(=O)[C@H](Cc2ccccc2)NC(=O)[C@@H](NC(=O)[C@H](CC(C)C)NC(C)=O)[C@@H](C)O)C(=O)N[C@@H](C)C(=O)N[C@@H](Cc2ccc(O)cc2)C(=O)N[C@@H](Cc2c[nH]c3ccccc23)C(=O)N[C@@H](C)C(=O)N[C@@H](CCC(N)=O)C(=O)N[C@@H](CC(C)C)C(=O)N1)C(=O)N[C@@H](C)C(N)=O [SP68]
IC50 [1]: 0.029 µM | EC50 ([2]; 72 hr (Table 1d)): 1.12 µM | solubility ([3]; aqueous solution, read-out: Solubility): 3 mg/mL (≈ 1690 µM)

CC(=O)N[C@@H](CC(C)C)C(=O)N[C@H](C(=O)N[C@@H](Cc1ccccc1)C(=O)NC1(C)CCCCCCC=CCCCC(C)(C(=O)N[C@@H](C)C(=O)N[C@@H](C)C(=O)N[C@@H](C)C(=O)N[C@@H](C)C(=O)N[C@@H](C)C(=O)N[C@@H](C)C(=O)N[C@H](C)C(N)=O)NC(=O)[C@H](CC(C)C)NC(=O)[C@H](CCC(N)=O)NC(=O)[C@H](C)NC(=O)[C@H](Cc2c[nH]c3ccccc23)NC(=O)[C@H](Cc2ccc(O)cc2)NC(=O)[C@H](C)NC1=O)[C@@H](C)O (stereo partly drawn) [SP317]
solubility ([3]; read-out: Solubility): 5 mg/mL (≈ 2570 µM)

CC(=O)N[C@@H](CC(C)C)C(=O)N[C@H](C(=O)N[C@@H](Cc1ccccc1)C(=O)N[C@]1(C)CCCCCCC=CCCC[C@@](C)(C(=O)N[C@@H](C)C(N)=O)NC(=O)[C@H](CC(C)C)NC(=O)[C@H](CCC(N)=O)NC(=O)[C@H](C)NC(=O)[C@H](Cc2c[nH]c3ccccc23)NC(=O)[C@H](Cc2ccc(O)cc2)NC(=O)[C@H](C)NC1=O)[C@@H](C)O [SP590, Ac-LTF$r8AYWAQL$A-NH2] (Ac-LTF[R8]AYWAQL[S5]A-NH2; staple 4-11)
EC50 ([2]; 72 hr (Table 1d)): 6 µM | solubility [3]: ≤ 1 mg/mL

CC(=O)N[C@@H](C(=O)N[C@H](C)C(=O)N[C@H](Cc1c[nH]c2ccccc12)C(=O)N[C@H](Cc1ccc(O)cc1)C(=O)N[C@@]1(C)CCCCCCC=CCCC[C@](C)(C(=O)N[C@H](C)C(N)=O)NC(=O)[C@@H](CC(C)C)NC(=O)[C@@H](CC(C)C)NC(=O)[C@@H](CCCCN)NC(=O)[C@@H](CCC(=O)O)NC(=O)[C@@H](Cc2ccc(C(F)(F)F)cc2)NC(=O)[C@@H](CC(N)=O)NC1=O)[C@H](C)O [SP757, Ac-tawy$s8nf4CF3ekll$r5a-NH2] (Ac-[dT][dA][dW][dY][S8][dN][dPhe(4-CF3)][dE][dK][dL][dL][R5][dA]-NH2; staple 5-12)
EC50 ([2]; 72 hr (Table 1f)): 1.5 µM

CC(=O)N[C@@H](C(=O)N[C@H](C)C(=O)N[C@H](Cc1c[nH]c2ccccc12)C(=O)N[C@H](Cc1ccc(O)cc1)C(=O)N[C@H](C)C(=O)N[C@H](CC(N)=O)C(=O)N[C@H](Cc1ccccc1)C(=O)N[C@H](CCC(=O)O)C(=O)N[C@H](CCCCN)C(=O)N[C@H](CC(C)C)C(=O)N[C@H](CC(C)C)C(=O)N[C@H](CCCNC(=N)N)C(N)=O)[C@H](C)O [SP778, Ac-tawyanfekllr-NH2, reference compound] (Ac-[dT][dA][dW][dY][dA][dN][dF][dE][dK][dL][dL][dR]-NH2)
EC50 ([2]; 72 hr (Table 1f)): > 30 µM

CCCC[C@H](NC(C)=O)C(=O)N[C@@H](CC(=O)O)C(=O)N[C@H](C(=O)N[C@@H](CC(N)=O)C(=O)N[C@@]1(C)CCCC=CCCC[C@@](C)(C(=O)N[C@@H](CC(C)C)C(=O)N[C@@H](C)C(=O)N[C@H](C(=O)NC(C)(C)C(=O)N[C@@H](C)C(=O)N[C@@H](CCC(N)=O)C(N)=O)C(C)C)NC(=O)[C@H](CC(C)C)NC(=O)[C@H](CC(C)C)NC(=O)[C@H]([C@@H](C)O)NC1=O)C(C)C [SP786] (Ac-[Nle]DVN[S5]TLL[S5]LAV[Aib]AQ-NH2; staple 5-9; C-terminus assumed)
EC50 [4]: 23 µM

CCCC[C@H](NC(C)=O)C(=O)N[C@@H](CC(=O)O)C(=O)N[C@H](C(=O)N[C@@H](CC(N)=O)C(=O)N[C@]1(C)CCCCCCC=CCCC[C@@](C)(C(=O)N[C@@H](C)C(=O)N[C@@H](C)C(=O)N[C@@H](CCC(N)=O)C(N)=O)NC(=O)[C@H](C)NC(=O)[C@H](CC(C)C)NC(=O)[C@H](Cc2ccccc2)NC(=O)[C@H](CC(C)C)NC(=O)[C@H](CC(C)C)NC(=O)[C@H]([C@@H](C)O)NC1=O)C(C)C [SP798] (Ac-[Nle]DVN[R8]TLLFLA[S5]AAQ-NH2; staple 5-12)
EC50 [4]: 4.5 µM

CC[C@H](C)[C@H](NC(C)=O)C(=O)N[C@@H](Cc1c[nH]c2ccccc12)C(=O)N[C@H](C(=O)N[C@@H](C)C(=O)N[C@@H](CCC(N)=O)C(=O)N[C@@H](C)C(=O)N[C@@H](CC(C)C)C(=O)N[C@@H](CCCNC(=N)N)C(=O)N[C@]1(C)CCCCCCC=CCCC[C@@](C)(C(=O)N[C@@H](Cc2ccc(O)cc2)C(=O)N[C@@H](Cc2ccc(O)cc2)C(=O)N[C@@H](C)C(=O)N[C@@H](CCCNC(=N)N)C(=O)N[C@@H](CCCNC(=N)N)C(N)=O)NC(=O)[C@H](CC(N)=O)NC(=O)[C@H](Cc2ccccc2)NC(=O)[C@H](CCC(=O)O)NC(=O)[C@H](CC(=O)O)NC(=O)CNC(=O)[C@H]([C@@H](C)CC)NC1=O)[C@@H](C)CC [SP809] (Ac-IWIAQALR[R8]IGDEFN[S5]YYARR-NH2; staple 9-16)
IC50 [5]: 0.0106 µM | IC50 [6]: 0.0039 µM | EC50 [7]: > 30 µM

CC[C@H](C)[C@H](NC(C)=O)C(=O)N[C@@H](Cc1c[nH]c2ccccc12)C(=O)N[C@H](C(=O)N[C@@H](C)C(=O)N[C@@H](CCC(N)=O)C(=O)N[C@@H](CCC(=O)O)C(=O)N[C@@H](CC(C)C)C(=O)N[C@@H](CCCNC(=N)N)C(=O)N[C@]1(C)CCCCCCC=CCCC[C@@](C)(C(=O)N[C@@H](Cc2ccc(O)cc2)C(=O)N[C@@H](Cc2ccc(O)cc2)C(=O)N[C@@H](C)C(=O)N[C@@H](CCCNC(=N)N)C(=O)N[C@@H](CCCNC(=N)N)C(N)=O)NC(=O)[C@H](CC(N)=O)NC(=O)[C@H](Cc2ccccc2)NC(=O)[C@H](CCC(=O)O)NC(=O)[C@H](CC(=O)O)NC(=O)CNC(=O)[C@H]([C@@H](C)CC)NC1=O)[C@@H](C)CC [SP810]
IC50 [6]: 0.0092 µM | EC50 [7]: > 30 µM

CC[C@H](C)[C@H](NC(C)=O)C(=O)N[C@@H](Cc1c[nH]c2ccccc12)C(=O)N[C@H](C(=O)N[C@@H](C)C(=O)N[C@@H](CCC(N)=O)C(=O)N[C@@H](C)C(=O)N[C@@H](CC(C)C)C(=O)N[C@@H](CCCNC(=N)N)C(=O)N[C@]1(C)CCCCCCC=CCCC[C@@](C)(C(=O)N[C@@H](Cc2ccc(O)cc2)C(=O)N[C@@H](Cc2ccc(O)cc2)C(=O)N[C@@H](C)C(N)=O)NC(=O)[C@H](CC(N)=O)NC(=O)[C@H](Cc2ccccc2)NC(=O)[C@H](C)NC(=O)[C@H](CC(=O)O)NC(=O)CNC(=O)[C@H]([C@@H](C)CC)NC1=O)[C@@H](C)CC [SP815] (Ac-IWIAQALR[R8]IGDAFN[S5]YYA-NH2; staple 9-16)
IC50 [5]: 0.0084 µM | IC50 [6]: 0.0224 µM | EC50 [7]: 6.6 µM

CC[C@H](C)[C@H](NC(C)=O)C(=O)N[C@@H](Cc1c[nH]c2ccccc12)C(=O)N[C@H](C(=O)N[C@@H](C)C(=O)N[C@@H](CCC(N)=O)C(=O)N[C@@H](C)C(=O)N[C@@H](CC(C)C)C(=O)N[C@@H](CCCNC(=N)N)C(=O)N[C@]1(C)CCCCCCC=CCCC[C@@](C)(C(=O)N[C@@H](Cc2ccc(O)cc2)C(=O)N[C@@H](Cc2ccc(F)cc2)C(=O)N[C@@H](C)C(N)=O)NC(=O)[C@H](CC(N)=O)NC(=O)[C@H](Cc2ccccc2)NC(=O)[C@H](C)NC(=O)[C@H](CC(=O)O)NC(=O)CNC(=O)[C@H](CCC(C)C)NC1=O)[C@@H](C)CC [SP962] (Ac-IWIAQALR[R8][hLeu]GDAFN[S5]Y[Phe(4-F)]A-NH2; staple 9-16)
IC50 [5]: 0.027 µM | IC50 [6]: 0.013 µM | EC50 [7]: 0.7 µM
